In the supplement of paper PMC10331698:
± gives the standard deviation of the averaged measurements.

What was measured:
Assay in all cases: level (log10 ratio to DMSO vehicle control); higher = higher biomarker level / cell amount than vehicle control
[1] = compound: CO[Si](C)(CCC(F)(F)C(F)(F)C(F)(F)C(F)(F)C(F)(F)C(F)(F)F)OC [Dimethoxymethyl((perfluorohexyl)ethyl)silane] (in DMSO)
Method: (§1)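 BioMAP Diversity Plus panel of 12 human primary cell co-culture systems (3C, 4H, LPS, SAg, BT, BF4T, BE3C, CASM3C, HDF3CGF, KF3CT, MyoF, Mphg). Compounds were added 1 h before stimulation and left for 24 h (MyoF 48 h; BT 72 h for soluble read-outs or 6 d for IgG). Biomarkers were read by ELISA, cytotoxicity by SRB, PBMC viability and proliferation by Alamar Blue. Each well value was divided by the mean of 8 DMSO control wells on the same plate and log10 transformed; duplicate blinded samples were tested at 4 concentrations.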

[2] = compound: C[C@@H]1C[C@H]2[C@@H]3CCC4=CC(=O)C=C[C@]4(C)[C@@]3(F)[C@@H](O)C[C@]2(C)[C@@]1(O)C(=O)COP(=O)(O)O [Dexamethasone sodium phosphate] (in DMSO)
Method: as §1

[3] = compound: O=C(O)C(F)(OC(F)(F)C(F)(OC(F)(F)C(F)(OC(F)(F)C(F)(F)C(F)(F)F)C(F)(F)F)C(F)(F)F)C(F)(F)F [Perfluoro-(2,5,8-trimethyl-3,6,9-trioxadodecanoic)acid] (in DMSO)
Method: as §1

[4] = compound: O=S(=O)(O)CCC(F)(F)C(F)(F)C(F)(F)C(F)(F)C(F)(F)C(F)(F)C(F)(F)C(F)(F)F [8:2 Fluorotelomer sulfonic acid] (in DMSO)
Method: as §1

[5] = compound: OCC(F)(F)OC(F)(F)C(F)(F)OC(F)(F)C(F)(F)OC(F)(F)CO [1H,1H,11H,11H-Perfluorotetraethylene glycol] (in DMSO)
Method: as §1

[6] = compound: OCCC(F)(F)C(F)(F)C(F)(F)C(F)(F)F [4:2 Fluorotelomer alcohol] (in DMSO)
Method: as §1

Row | Test System | level (log10) ([1]; 6700 nM) | level (log10) ([1]; 20000 nM) | level (log10) ([2]; 1500 nM) | level (log10) ([2]; 4400 nM) | level (log10) ([2]; 13000 nM) | level (log10) ([2]; 40000 nM) | level (log10) ([3]; 1100 nM) | level (log10) ([3]; 3300 nM) | level (log10) ([3]; 10000 nM) | level (log10) ([4]; 6700 nM) | level (log10) ([4]; 20000 nM) | level (log10) ([4]; 60000 nM) | level (log10) ([5]; 6700 nM) | level (log10) ([5]; 20000 nM) | level (log10) ([5]; 60000 nM) | level (log10) ([6]; 6700 nM) | level (log10) ([6]; 20000 nM) | level (log10) ([6]; 60000 nM)
1 | SAg:CD40 | -0.0095 ± 0.0078 | -0.022 ± 0.0042 | -0.044 ± 0.0085 | -0.072 ± 0.05 | -0.0535 ± 0.03 | -0.074 ± 0.081 | -0.009 ± 0.0071 | -0.0015 ± 0.0021 | -0.0005 ± 0.019 | -0.013 ± 0.051 | -0.0215 ± 0.021 | -0.071 ± 0.051 | 0.011 ± 0.03 | -0.035 ± 0.044 | -0.132 ± 0.043 | -0.028 ± 0.059 | -0.036 ± 0.037 | -0.006 ± 0.068
2 | SAg:CD62E/E-Selectin | -0.0185 ± 0.019 | 0.0235 ± 0.0035 | -0.0615 ± 0.0021 | -0.124 ± 0.015 | -0.168 ± 0.059 | -0.168 ± 0.03 | -0.02 ± 0.0014 | -0.031 ± 0.02 | 0.008 ± 0.042 | 0.0085 ± 0.042 | 0.0465 ± 0.013 | 0.109 ± 0.0042 | -0.009 ± 0.042 | -0.0455 ± 0.0078 | -0.276 ± 0.062 | -0.0125 ± 0.011 | -0.001 ± 0.011 | 0.025 ± 0.016
3 | SAg:CD69 | -0.032 ± 0.033 | -0.0115 ± 0.011 | -0.025 ± 0.02 | -0.054 ± 0.02 | -0.0885 ± 0.03 | -0.0865 ± 0.011 | -0.0135 ± 0.005 | -0.015 ± 0.0042 | -0.0095 ± 0.023 | -0.025 ± 0.057 | -0.0205 ± 0.04 | -0.043 ± 0.075 | -0.0095 ± 0.1 | -0.0275 ± 0.066 | -0.162 ± 0.061 | -0.0265 ± 0.00071 | -0.0115 ± 0.011 | -0.0005 ± 0.0092
4 | SAg:CXCL8/IL-8 | -0.0085 ± 0.012 | 0.0145 ± 0.018 | -0.0245 ± 0.039 | -0.0475 ± 0.039 | -0.097 ± 0.075 | -0.137 ± 0.087 | -0.0095 ± 0.028 | -0.0265 ± 0.037 | 0.0195 ± 0.026 | -0.0075 ± 0.076 | -0.009 ± 0.014 | 0.071 ± 0.044 | -0.0225 ± 0.069 | -0.061 ± 0.072 | -0.209 ± 0.005 | -0.017 ± 0.0071 | -0.018 ± 0.016 | 0.018 ± 0.034
5 | SAg:CXCL9/MIG | 0.0075 ± 0.0021 | -0.0035 ± 0.0035 | 0.0095 ± 0.00071 | -0.0065 ± 0.0035 | -0.0125 ± 0.0035 | -0.005 ± 0.0099 | -0.01 ± 0.017 | 0.008 ± 0.017 | -0.0005 ± 0.016 | 0.0005 ± 0.018 | -0.008 ± 0.0028 | 0.001 ± 0.0057 | -0.0095 ± 0.005 | 0.0095 ± 0.0035 | 0.015 ± 0.0071 | -0.0125 ± 0.0092 | 0.003 ± 0.0057 | 0.0105 ± 0.035
6 | SAg:PBMC Cytotoxicity | -0.0045 ± 0.012 | 0.019 ± 0.0057 | -0.013 ± 0.054 | 0.003 ± 0.037 | -0.05 ± 0.024 | -0.0395 ± 0.019 | 0.002 ± 0.04 | 0.024 ± 0.027 | -0.0095 ± 0.07 | -0.0125 ± 0.015 | 0 ± 0.0042 | 0.0075 ± 0.0021 | -0.023 ± 0.034 | 0.008 ± 0.016 | -0.002 ± 0.033 | -0.021 ± 0.023 | -0.0085 ± 0.0021 | -0.0095 ± 0.005
7 | SAg:Proliferation | 0.051 ± 0.048 | -0.004 ± 0.13 | -0.001 ± 0.034 | 0.0035 ± 0.0078 | -0.0855 ± 0.005 | -0.023 ± 0.0099 | 0.009 ± 0.041 | 0.0425 ± 0.0035 | 0.0335 ± 0.016 | -0.02 ± 0.054 | -0.0085 ± 0.011 | -0.0735 ± 0.0035 | -0.0355 ± 0.074 | -0.0455 ± 0.00071 | -0.126 ± 0.016 | -0.041 ± 0.042 | -0.033 ± 0.0071 | -0.0025 ± 0.032
8 | SAg:SRB | -0.0125 ± 0.013 | 0.0045 ± 0.0035 | 0.0105 ± 0.0092 | 0.0005 ± 0.005 | 0.005 ± 0.016 | 0.003 ± 0.025 | -0.007 ± 0.0071 | -0.013 ± 0.0042 | -0.0015 ± 0.0021 | -0.0075 ± 0.0035 | -0.0095 ± 0.0035 | -0.0335 ± 0.011 | -0.008 ± 0.025 | -0.0175 ± 0.021 | -0.045 ± 0.021 | -0.009 ± 0.0042 | -0.013 ± 0.016 | 0.001 ± 0.0028
